According to patent US8268859B2, “Glucocorticoid mimetics, methods of making them, pharmaceutical compositions and uses thereof” (Boehringer Ingelheim International GmbH, priority 2008, dated 2012):
Where two headings read alike, the source gives them in different places.

Columns and labels:
[1] = biological target: T1, human glucocorticoid receptor (GR) complex (Homo sapiens, UniProt P04150); experiment: Glucocorticoid receptor fluorescence polarization competitive binding assay;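 note: GR complex expressed in an insect system, wells lacking compound give full signal, excess unlabeled dexamethasone defines the blank, IC50 from logistic curve fit of polarization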
T1 construct: made in house; host or cells: insect expression system (baculovirus lysate)
T1 sequence (P04150 1-777): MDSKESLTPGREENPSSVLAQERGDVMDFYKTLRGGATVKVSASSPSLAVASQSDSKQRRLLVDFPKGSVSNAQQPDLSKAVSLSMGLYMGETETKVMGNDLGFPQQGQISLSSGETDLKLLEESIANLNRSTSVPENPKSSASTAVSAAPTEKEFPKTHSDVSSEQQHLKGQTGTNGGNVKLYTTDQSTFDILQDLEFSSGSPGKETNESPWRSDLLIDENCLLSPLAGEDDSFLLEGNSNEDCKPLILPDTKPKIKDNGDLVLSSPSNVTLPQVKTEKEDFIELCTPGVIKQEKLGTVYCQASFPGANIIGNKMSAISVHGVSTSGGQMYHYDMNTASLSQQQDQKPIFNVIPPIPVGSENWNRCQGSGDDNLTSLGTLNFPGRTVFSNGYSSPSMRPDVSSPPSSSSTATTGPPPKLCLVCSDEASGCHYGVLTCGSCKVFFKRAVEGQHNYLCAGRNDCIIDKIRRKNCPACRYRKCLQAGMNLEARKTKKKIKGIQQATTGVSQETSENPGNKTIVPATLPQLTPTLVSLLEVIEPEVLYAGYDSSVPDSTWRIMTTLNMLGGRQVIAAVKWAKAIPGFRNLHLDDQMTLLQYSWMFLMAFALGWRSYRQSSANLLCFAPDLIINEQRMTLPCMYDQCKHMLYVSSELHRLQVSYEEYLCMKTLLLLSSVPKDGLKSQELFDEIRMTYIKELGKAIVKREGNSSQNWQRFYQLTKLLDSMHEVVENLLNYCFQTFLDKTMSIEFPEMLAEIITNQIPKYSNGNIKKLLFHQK

human recombinant CYP3A4 = human recombinant CYP3A4 (Homo sapiens, UniProt P08684); experiment: Cytochrome P450 inhibition assay (substrate 7-benzyloxy-4-(trifluoromethyl)coumarin); assay type: in vitro ADME;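 note: compounds preincubated at least 10 min at 37 °C before adding enzyme plus substrate, reaction run 30 min at 37 °C, ketoconazole standard curve on every plate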
Sequence of human recombinant CYP3A4 (P08684 whole entry): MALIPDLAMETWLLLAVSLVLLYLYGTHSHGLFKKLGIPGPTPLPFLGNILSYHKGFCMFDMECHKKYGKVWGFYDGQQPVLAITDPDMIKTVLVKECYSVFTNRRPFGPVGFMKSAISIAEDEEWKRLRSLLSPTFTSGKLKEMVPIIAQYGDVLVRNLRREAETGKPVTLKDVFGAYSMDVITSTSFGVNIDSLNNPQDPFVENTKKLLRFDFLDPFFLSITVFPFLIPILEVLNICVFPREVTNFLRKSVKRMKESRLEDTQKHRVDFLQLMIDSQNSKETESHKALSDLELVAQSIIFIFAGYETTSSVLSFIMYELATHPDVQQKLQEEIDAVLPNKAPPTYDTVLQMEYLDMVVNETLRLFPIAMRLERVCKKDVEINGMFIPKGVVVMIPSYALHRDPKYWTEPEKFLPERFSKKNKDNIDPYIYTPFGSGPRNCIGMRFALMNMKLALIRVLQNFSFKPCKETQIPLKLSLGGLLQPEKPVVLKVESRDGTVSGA

[2] = Table 1, competition with TAMRA-labeled dexamethasone, read-out: GR IC50
[3] = Table 2, comparison compounds, read-out: CYP3A4 Inhibition IC50

Q: For CC(C)(CC(O)(Cc1cc2nc(S(C)(=O)=O)ccc2[nH]1)C(F)(F)F)c1cccc(F)c1S(C)(=O)=O (centres unmarked) [1,1,1-Trifluoro-4-(3-fluoro-2-methanesulfonylphenyl)-2-(5-meethanesulfonyl-1H-pyrrolo[3,2-b]pyridin-2-ylmethyl)-4-methylpentan-2-ol], which IC50 [1, 2] is on record?
A: 0.065 µM

Q: And the IC50 (human recombinant CYP3A4; Table 1, read-out: CYP3A4 IC50)?
A: 12 µM

Q: How did the IC50 (human recombinant CYP3A4; [3]) turn out when CC(C)(CC(O)(Cc1cc2ccncc2[nH]1)C(F)(F)F)c1ccccc1C(N)=O (centres unmarked) [Compound 5, reference compound] was run?
A: 0.51 µM

Q: With CC(C)(C[C@@](O)(Cc1cc2nc(S(C)(=O)=O)ccc2[nH]1)C(F)(F)F)c1cccc(Br)c1 [(R)-4-(3-Bromophenyl)-1,1,1-trifluoro-2-(5-methanesulfonyl-1H-pyrrolo[3,2-b]pyridin-2-ylmethyl)-4-methylpentan-2-ol] as the compound, how does the IC50 [1, 2] read?
A: 0.014 µM

Q: What about the IC50 (human recombinant CYP3A4; Table 1, read-out: CYP3A4 IC50) of the same compound?
A: 15 µM

Q: With CC(C)(C[C@@](O)(Cc1cc2cc(S(C)(=O)=O)ncc2[nH]1)C(F)(F)F)c1cc(Cl)cc2c1OCC2 [drawing 3, (R)-4-(5-Chloro-2,3-dihydrobenzofuran-7-yl)-1,1,1-trifluoro-2-(5-methanesulfonyl-1H-pyrrolo[2,3-c]pyridin-2-ylmethyl)-4-methylpentan-2-ol] as the compound, how does the IC50 [1, 2] read?
A: 0.006 µM

Q: And the IC50 (human recombinant CYP3A4; Table 1, read-out: CYP3A4 IC50)?
A: 6.5 µM

Q: CC(C)S(=O)(=O)c1cc2cc(CC(O)(CC(C)(C)c3ccccc3S(C)(=O)=O)C(F)(F)F)[nH]c2cn1 (centres unmarked) [1,1,1-Trifluoro-4-(2-methanesulfonylphenyl)-4-methyl-2-[5-(propane-2-sulfonyl)-1H-pyrrolo[2,3-c]pyridin-2-ylmethyl]pentan-2-ol] was tested. Which IC50 [1, 2] did it give?
A: 0.097 µM

Q: And the IC50 (human recombinant CYP3A4; Table 1, read-out: CYP3A4 IC50)?
A: 22 µM

Q: Which IC50 [1, 2] does the source give for CC(C)S(=O)(=O)c1cc2cc(CC(O)(CC(C)(C)c3ccc(F)cc3S(C)(=O)=O)C(F)(F)F)[nH]c2cn1 (centres unmarked) [1,1,1-Trifluoro-4-(4-fluoro-2-methanesulfonylphenyl)-4-methyl-2-[5-(propane-2-sulfonyl)-1H-pyrrolo[2,3-c]pyridin-2-ylmethyl]pentan-2-ol] here?
A: 0.053 µM

Q: And the IC50 (human recombinant CYP3A4; Table 1, read-out: CYP3A4 IC50)?
A: 19 µM

Q: CC(C)(CC(O)(Cc1cc2cc(S(C)(=O)=O)ncc2[nH]1)C(F)(F)F)c1cccc2ccsc12 (centres unmarked) [4-Benzo[b]thiophen-7-yl-1,1,1-trifluoro-2-(5-methanesulfonyl-1H-pyrrolo[2,3-c]pyridin-2-ylmethyl)-4-methylpentan-2-ol] was tested. Which IC50 [1] did it give?
A: 0.01 µM

Q: And the IC50 (human recombinant CYP3A4; Table 1, read-out: CYP3A4 IC50)?
A: 2.7 µM

Q: CCS(=O)(=O)c1cc2cc(CC(O)(CC(C)(C)c3cccc4c3S(=O)(=O)C=C4)C(F)(F)F)[nH]c2cn1 (centres unmarked) [4-(1,1-Dioxo-1H-1λ^6-benzo[b]thiophen-7-yl)-2-(5-ethanesulfonyl-1H-pyrrolo[2,3-c]pyridin-2-ylmethyl)-1,1,1-trifluoro-4-methylpentan-2-ol] was tested. Which IC50 [1, 2] did it give?
A: 0.058 µM

Q: And the IC50 (human recombinant CYP3A4; Table 1, read-out: CYP3A4 IC50)?
A: 4.1 µM

Q: Which IC50 [1, 2] does the source give for CC(C)S(=O)(=O)c1cc2cc(CC(O)(CC(C)(C)c3cccc(F)c3S(C)(=O)=O)C(F)(F)F)[nH]c2cn1 (centres unmarked) [1,1,1-Trifluoro-4-(3-fluoro-2-methanesulfonylphenyl)-4-methyl-2-[5-(propane-2-sulfonyl)-1H-pyrrolo[2,3-c]pyridin-2-ylmethyl]pentan-2-ol] here?
A: 0.21 µM

Q: What about the IC50 (human recombinant CYP3A4; Table 1, read-out: CYP3A4 IC50) of the same compound?
A: > 30 µM

Q: Which IC50 [1, 2] does the source give for CC(C)(CC(O)(Cc1cc2cc(S(C)(=O)=O)ncc2[nH]1)C(F)(F)F)c1cccc2c1S(=O)(=O)C=C2 (centres unmarked) [4-(1,1-Dioxo-1H-1λ^6-benzo[b]thiophen-7-yl)-1,1,1-trifluoro-2-(5-methanesulfonyl-1H-pyrrolo[2,3-c]pyridin-2-ylmethyl)-4-methylpentan-2-ol] here?
A: 0.089 µM

Q: What about the IC50 (human recombinant CYP3A4; Table 1, read-out: CYP3A4 IC50) of the same compound?
A: 7.4 µM

Q: Which IC50 [1, 2] does the source give for CC(C)(CC(O)(Cc1cc2cc(S(C)(=O)=O)ncc2[nH]1)C(F)(F)F)c1cc(Br)ccc1O (centres unmarked) [4-Bromo-2-[4,4,4-trifluoro-3-hydroxy-3-(5-methanesulfonyl-1H-pyrrolo[2,3-c]pyridin-2-ylmethyl)-1,1-dimethylbutyl]phenol] here?
A: 0.007 µM

Q: And the IC50 (human recombinant CYP3A4; Table 1, read-out: CYP3A4 IC50)?
A: 5.6 µM

Q: What does the source list for CC(C)(CC(O)(Cc1cc2cc(S(C)(=O)=O)ncc2[nH]1)C(F)(F)F)c1ccccc1Br (centres unmarked) [4-(2-Bromophenyl)-1,1,1-trifluoro-2-(5-methanesulfonyl-1H-pyrrolo[2,3-c]pyridin-2-ylmethyl)-4-methylpentan-2-ol]?
A: IC50 [1, 2]: 0.007 µM; IC50 (human recombinant CYP3A4; Table 1, read-out: CYP3A4 IC50): 23 µM

Q: With CC(C)(CC(O)(Cc1cc2ccncc2[nH]1)C(F)(F)F)c1ccccc1S(C)(=O)=O (centres unmarked) [Compound 2, reference compound] as the compound, how does the IC50 (human recombinant CYP3A4; [3]) read?
A: 0.18 µM

Q: CC(C)(C[C@@](O)(Cc1cc2nc(S(C)(=O)=O)ncc2[nH]1)C(F)(F)F)c1ccc(F)cc1C(N)=O [5-Fluoro-2-[(R)-4,4,4-trifluoro-3-hydroxy-3-(2-methanesulfonyl-5H-pyrrolo[3,2-d]pyrimidin-6-ylmethyl)-1,1-dimethylbutyl]benzamide] was tested. Which IC50 [1, 2] did it give?
A: 0.21 µM

Q: What about the IC50 (human recombinant CYP3A4; Table 1, read-out: CYP3A4 IC50) of the same compound?
A: 11 µM

Q: Which IC50 [1] does the source give for CCCS(=O)(=O)c1cc2cc(CC(O)(CC(C)(C)c3ccccc3S(C)(=O)=O)C(F)(F)F)[nH]c2cn1 (centres unmarked) [1,1,1-Trifluoro-4-(2-methanesulfonylphenyl)-4-methyl-2-[5-(propane-1-sulfonyl)-1H-pyrrolo[2,3-c]pyridin-2-ylmethyl]pentan-2-ol] here?
A: 0.024 µM

Q: What about the IC50 (human recombinant CYP3A4; Table 1, read-out: CYP3A4 IC50) of the same compound?
A: 1.6 µM

Q: With CC(C)(C[C@@](O)(Cc1cc2nc(S(C)(=O)=O)ccc2[nH]1)C(F)(F)F)c1ccc(F)cc1C(N)=O [5-Fluoro-2-[(R)-4,4,4-trifluoro-3-hydroxy-3-(5-methanesulfonyl-1H-pyrrolo[3,2-b]pyridin-2-ylmethyl)-1,1-dimethyl-butyl]benzamide] as the compound, how does the IC50 [1] read?
A: 0.027 µM

Q: And the IC50 (human recombinant CYP3A4; Table 1, read-out: CYP3A4 IC50)?
A: 7 µM

Q: With CC(C)S(=O)(=O)c1cc2cc(CC(O)(CC(C)(C)c3cc(Cl)ccc3S(C)(=O)=O)C(F)(F)F)[nH]c2cn1 (centres unmarked) [4-(5-Chloro-2-methanesulfonylphenyl)-1,1,1-trifluoro-4-methyl-2-[5-(propane-2-sulfonyl)-1H-pyrrolo[2,3-c]pyridin-2-ylmethyl]pentan-2-ol] as the compound, how does the IC50 [1, 2] read?
A: 0.017 µM

Q: What about the IC50 (human recombinant CYP3A4; Table 1, read-out: CYP3A4 IC50) of the same compound?
A: 6 µM

Q: For CC(C)(CC(O)(Cc1cc2ccncc2[nH]1)C(F)(F)F)c1ccccc1 (centres unmarked) [Compound 7, reference compound], which “CYP inhibition (in words)” value (human recombinant CYP3A4; Table 2) is on record?
A: potent CYP inhibitor

Q: What about the IC50 (human recombinant CYP3A4; [3]) of the same compound?
A: 0.9 µM

Q: CC(C)(C[C@@](O)(Cc1cc2cc(S(C)(=O)=O)ncc2[nH]1)C(F)(F)F)c1cccc(Br)c1 [(R)-4-(3-Bromophenyl)-1,1,1-trifluoro-2-(5-methanesulfonyl-1H-pyrrolo[2,3-c]pyridin-2-ylmethyl)-4-methylpentan-2-ol] was tested. Which IC50 [1] did it give?
A: 0.009 µM

Q: And the IC50 (human recombinant CYP3A4; Table 1, read-out: CYP3A4 IC50)?
A: 20 µM

Q: CC(C)(CC(O)(Cc1cc2cc(S(C)(=O)=O)ncc2[nH]1)C(F)(F)F)c1cc(F)ccc1S(C)(=O)=O (centres unmarked) [1,1,1-Trifluoro-4-(5-fluoro-2-methanesulfonylphenyl)-2-(5-methanesulfonyl-1H-pyrrolo[2,3-c]pyridin-2-ylmethyl)-4-methylpentan-2-ol] was tested. Which IC50 [1, 2] did it give?
A: 0.019 µM

Q: How did the IC50 [1, 2] turn out when Cc1ccc(C(C)(C)CC(O)(Cc2cc3cc(S(=O)(=O)C(C)C)ncc3[nH]2)C(F)(F)F)c(C(N)=O)c1 (centres unmarked) [5-Methyl-2-{4,4,4-trifluoro-3-hydroxy-1,1-dimethyl-3-[5-(propane-2-sulfonyl)-1H-pyrrolo[2,3-c]pyridin-2-ylmethyl]butyl}benzamide] was run?
A: 0.25 µM

Q: For CC(C)(C[C@@](O)(Cc1cc2nc(S(C)(=O)=O)ccc2[nH]1)C(F)(F)F)c1ccccc1C(N)=O [2-[(R)-4,4,4-Trifluoro-2-hydroxy-3-(5-meethanesulfonyl-1H-pyrrolo[3,2-b]pyridin-2-ylmethyl)-1,1-dimethylbutyl]benzamide], which IC50 [1, 2] is on record?
A: 0.032 µM

Q: How did the IC50 [1, 2] turn out when CCS(=O)(=O)c1cc2cc(CC(O)(CC(C)(C)c3ccc(Cl)cc3C(N)=O)C(F)(F)F)[nH]c2cn1 (centres unmarked) [5-Chloro-2-[3-(5-ethanesulfonyl-1H-pyrrolo[2,3-c]pyridin-2-ylmethyl)-4,4,4-trifluoro-3-hydroxy-1,1-dimethylbutyl]benzamide] was run?
A: 0.044 µM

Q: How did the IC50 [1, 2] turn out when CCS(=O)(=O)c1cc2cc(CC(O)(CC(C)(C)c3cccc(F)c3S(C)(=O)=O)C(F)(F)F)[nH]c2cn1 (centres unmarked) [2-(5-Ethanesulfonyl-1H-pyrrolo[2,3-c]pyridin-2-ylmethyl)-1,1,1-trifluoro-4-(3-fluoro-2-methanesulfonylphenyl)-4-methylpentan-2-ol] was run?
A: 0.055 µM

Q: How did the IC50 [1, 2] turn out when CCS(=O)(=O)c1cc2cc(CC(O)(CC(C)(C)c3ccccc3S(N)(=O)=O)C(F)(F)F)[nH]c2cn1 (centres unmarked) [2-[3-(5-Ethanesulfonyl-1H-pyrrolo[2,3-c]pyridin-2-ylmethyl)-4,4,4-trifluoro-3-hydroxy-1,1-dimethylbutyl]benzenesulfonamide] was run?
A: 0.14 µM

Q: With CC(C)(C[C@@](O)(Cc1cc2cc(S(C)(=O)=O)ncc2[nH]1)C(F)(F)F)c1ccc(Cl)cc1S(C)(=O)=O [drawing 13, (R)-4-(4-Chloro-2-methanesulfonylphenyl)-1,1,1-trifluoro-2-(5-methanesulfonyl-1H-pyrrolo[2,3-c]pyridin-2-ylmethyl)-4-methylpentan-2-ol] as the compound, how does the IC50 [1] read?
A: 0.036 µM

Q: Cc1ccc(C(C)(C)CC(O)(Cc2cc3nc(S(C)(=O)=O)ccc3[nH]2)C(F)(F)F)c(C(N)=O)c1 (centres unmarked) [5-Methyl-2-[4,4,4-trifluoro-3-hydroxy-3-(5-methanesulfonyl-1H-pyrrolo[3,2-b]pyridin-2-ylmethyl)-1,1-dimethylbutyl]benzamide] was tested. Which IC50 [1, 2] did it give?
A: 0.058 µM
